Assay results reported in patent US6127339A, “Peptide for binding thereto a low density lipoprotein” (Asahi Kasei Kogyo Kabushiki Kaisha, priority 1995, dated 2000).
No end group written: not given here.

test system: LDL; assay: LDL-adsorbing ratio of peptide-bonded resin in LDL solution (decrease of free cholesterol); type: binding; settings: Table 3; peptide-bonded resin 85 mg dry, 1 ml LDL solution 50 μg/ml in PBS

Substance	LDL-adsorbing ratio (%)
WAWEEGGGGG (not fully specified) [comparative peptide bonded to TG polystyrene resin, electric charge 0 or less, reference compound]	4.3%
LFLMRGGGGG	36.9%
WAWRRGGGGG (not fully specified) [peptide bonded to TG polystyrene resin]	49.8%
LFLMR (not fully specified) [peptide bonded to TG polystyrene resin]	39.3%
FFFFFFGGGGG [comparative peptide bonded to TG polystyrene resin, electric charge 0 or less, reference compound]	2.6%
WAWRR (not fully specified) [peptide bonded to TG polystyrene resin]	62.2%

same assay, conditions: Table 4; peptide-bonded resin 85 mg dry, 1 ml LDL solution 50 μg/ml in PBS

Substance	LDL-adsorbing ratio (%)
WFWR (not fully specified) [peptide bonded to TG polystyrene resin]	35.0%
WWK	25.0%
WWR	32.0%
WFWRR (not fully specified) [peptide bonded to TG polystyrene resin]	49.0%
WFWK (not fully specified) [peptide bonded to TG polystyrene resin]	33.0%
WFWKK (not fully specified) [peptide bonded to TG polystyrene resin]	43.0%

same assay, conditions: Table 5; D-form and L-form peptides on resin, same manner as Example 4

Substance	LDL-adsorbing ratio (%)
WWWR [WWWR (L-form)] (also: L-form) [peptide bonded to TG polystyrene resin]	42.2%
WWWR [WWWR (D-form)]	33.8%
WFWRR [WFWRR (D-form)]	38.3%
WWR [WWR (D-form)]	41.6%

same assay, conditions: Table 5; D-form and L-form peptides on resin, same manner as Example 4; listed as WFWRR (L-form)

Substance	LDL-adsorbing ratio (%)
WFWRR (not fully specified) [peptide bonded to TG polystyrene resin]	39.1%

same assay, conditions: Table 5; D-form and L-form peptides on resin, same manner as Example 4; listed as WWR (L-form)

Substance	LDL-adsorbing ratio (%)
WWR	33.8%

same assay, conditions: Table 6; peptide-bonded resin, same manner as Example 4

Substance	LDL-adsorbing ratio (%)
WAAAAAR (not fully specified) [peptide bonded to TG polystyrene resin]	23.7%
WAR	32.3%
WAAR (not fully specified) [peptide bonded to TG polystyrene resin]	36.3%
WAAAAR (not fully specified) [peptide bonded to TG polystyrene resin]	26.3%
WAAAR (not fully specified) [peptide bonded to TG polystyrene resin]	39.3%

test system: LDL; assay: Staining of peptide-bonded resin with biotinylated LDL in plasma (ABC method); type: binding; set-up: key: the peptide-bonded resins which were stained are indicated with "+ (plus)"; the peptide-bonded resins which were not stained are indicated with "- (minus)"; settings: Table 1, peptide-bonded TG resin, room temperature 1 hour, peroxidase-streptoavidin/3,3'-diaminobenzidine
Experimental: With respect to the adsorbent comprising the water-insoluble carrier having bonded thereto the peptide, as a method for evaluating the binding ability (affinity) of the adsorbent for an LDL, there can be mentioned a method in which, after causing an LDL to be adsorbed on the adsorbent, the adsorbent having the LDL adsorbed thereon is subjected to staining (avidin-biotin complex method, that is, ABC method). Specifically, a biotinylated LDL is added to plasma, and the adsorbent is immersed in the plasma for a predetermined period of time. Then, the adsorbent is taken out of the plasma, and washed. Subsequently, the adsorbent is immersed in a horseradish peroxidase-labeled streptoavidin solution, and a solution of 3,3'-diamino benzidine, which is a substrate for the above-mentioned enzyme (horseradish peroxidase), is added thereto, thereby staining the adsorbent. The binding ability of the adsorbent for LDL is evaluated from the degree of the staining. With respect to methods for evaluating a binding ability for LDL, reference can be made to, for example, the following literature: S. M. Hsu, L. Raine, H. Fanger, J. Histchem. Cytochem., 29, 577 (1981); and H. Towbin, T. Staehelin, J. Gordon, Proc. Natl. Acad. Sci. U.S.A., 76, 4350 (1979).
The ability of each of the peptides to bind thereto an LDL was evaluated as follows. To a blood sample obtained from a healthy person was added a 3.8% aqueous solution of sodium citrate to thereby obtain a mixture. The obtained mixture was centrifuged to separate the blood sample into a blood cells component and a plasma component.
On the other hand, each of the above-mentioned polystyrene resins having bonded thereto the above-synthesized peptides was individually taken out from the synthesis reaction system and packed in a column having a filter (manufactured and sold by Bio-Rad laboratories, U.S.A.). Subsequently, the plasma-LDL mixture prepared above was added to the column, and the column was allowed to stand at room temperature for 1 hour. Then, the column was washed with a physiological saline containing 0.1% Tween 20 and sodium phosphate. After the washing, 1 ml of a horseradish peroxidase-labeled streptoavidine (0.2 ug/ml) solution containing 10% Block Ace (manufacturedand sold by Dainippon Pharmaceutical Co., Ltd., Japan) was added to the column, and the column was allowed to stand at room temperature for 30 minutes. Then, 1 ml of a 3,3'-diaminobenzidine tetrahydrochloride ([…]) solution containing 0.005% hydrogen peroxide was added to the column (by the addition of this solution, when a peptide-bonded resin contained in the column has the LDL bonded thereto, the resin is stained to assume brown color).
Results are shown in Table 1, wherein the peptide-bonded resins which were stained are indicated with "+ (plus)" and the peptide-bonded resins which were not stained are indicated with "- (minus)".
The ability of each of the peptides to bind thereto an LDL was evaluated in substantially the same manner as in Example 1.

Substance	Stain
Example 1 Sample 5: pentapeptide N1-N5 = W A L Y R, bonded to TG polystyrene resin (WALYR; not fully specified; printed as Trp Ala Leu Tyr Arg)	+
Example 1 Sample 4: pentapeptide N1-N5 = I F Y K W, bonded to TG polystyrene resin (IFYKW; not fully specified; printed as Ile Phe Tyr Lys Trp)	+

same assay, conditions: Table 2, peptide-bonded TG resin, same manner as Example 1

Substance	Stain
Example 2 Sample 9: pentapeptide N1-N5 = Y Y R W F, bonded to TG polystyrene resin (YYRWF; not fully specified; printed as Tyr Tyr Arg Trp Phe)	+
Example 2 Sample 11: pentapeptide N1-N5 = F F W R G, bonded to TG polystyrene resin (FFWRG; not fully specified; printed as Phe Phe Trp Arg Gly)	+
Example 2 Sample 12: pentapeptide N1-N5 = L N F R W, bonded to TG polystyrene resin (LNFRW; not fully specified; printed as Leu Asn Phe Arg Trp)	+
Comparative Example 2 Sample 10: comparative pentapeptide N1-N5 = F I I M E, bonded to TG polystyrene resin (FIIME; not fully specified; printed as Phe Ile Ile Met Glu) [reference compound]	-
Comparative Example 2 Sample 3: comparative pentapeptide N1-N5 = W H V Q T, bonded to TG polystyrene resin (WHVQT; not fully specified; printed as Trp His Val Gln Thr) [reference compound]	-
Example 2 Sample 10: pentapeptide N1-N5 = L W K S F, bonded to TG polystyrene resin (LWKSF; not fully specified; printed as Leu Trp Lys Ser Phe)	+
